Data on 21 compounds can be found in patent US20130035256A1, “Chimeric Polypeptides Useful in Proximal and Dynamic High-Throughput Screening Methods” (ADDEX PHARMA SA, priority 2010, published 2013).

Structures can show the parent of a compound that is named as a salt. Marks after values point to notes of the source that are not given here.

For experiment [1], the target named is T1, M4R (Homo sapiens, UniProt P08173).
T1 construct: expressed in transfected cells
T1 sequence (P08173 1-479): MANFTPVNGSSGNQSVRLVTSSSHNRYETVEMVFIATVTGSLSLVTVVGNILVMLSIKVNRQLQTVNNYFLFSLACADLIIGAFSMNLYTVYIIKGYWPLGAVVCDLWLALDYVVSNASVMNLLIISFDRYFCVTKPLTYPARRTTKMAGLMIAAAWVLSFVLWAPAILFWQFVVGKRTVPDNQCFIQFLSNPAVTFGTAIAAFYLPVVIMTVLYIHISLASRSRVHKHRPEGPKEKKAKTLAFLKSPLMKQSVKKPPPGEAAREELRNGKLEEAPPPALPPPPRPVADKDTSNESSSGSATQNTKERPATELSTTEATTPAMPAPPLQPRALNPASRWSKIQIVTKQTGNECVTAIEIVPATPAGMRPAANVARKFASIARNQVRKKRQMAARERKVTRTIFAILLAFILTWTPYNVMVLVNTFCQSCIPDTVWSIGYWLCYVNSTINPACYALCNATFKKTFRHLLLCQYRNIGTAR
Kind of experiment: Calcium-based assay, calcium flux in cells co-expressing recombinant M4R and modified Gαq. The experiment is classed as cell-based. The note with it: for Calcium-based assay % stim: compound tested alone; for Calcium-based assay % enh: in presence of EC20 value of Ach; for Calcium-based assay % inh: in presence of EC80 of Ach. The procedure: (§1) The assay of the present invention was compared with a state of the art calcium based assay. […] In calcium-based assay, a calcium flux is measured in cells co-expressing recombinant M4R and modified Gαq. In the assay in accordance with the present invention, BRET in measured in cells co-expressing a chimeric M4R according to RGLG-2 (construct and cell-line from FIG. 2C, Table 6) and FP-Gγ9 (as described in FIG. 10A). The data represent mean values and they are normalized to the maximal effect of the orthosteric agonist after the subtraction of the basal values.

The target of experiment [2] is T2, chimeric M4R (RGLG-2) (Homo sapiens, UniProt P08173).
T2 construct: ID; NOs; expressed in transfected cells
Briefly: BRET assay of the invention, cells co-expressing chimeric M4R (RGLG-2) and FP-Gγ9. The experiment is classed as cell-based. The settings on record: for Invention assay % stim: compound tested alone; for Invention assay % enh: in presence of EC20 value of Ach; for Invention assay % inh: in presence of EC80 of Ach; for activation of the chimeric M4R (BRET): increasing concentrations of ligand. The procedure:
The same cells as described for FIG. 10 A were used. […] The decrease of the signal below baseline in the PTX-treated condition confirms a constitutive activity that has been described for the M4R. […]
A typical experiment has the following sequence.
as §1

Setting [3] is: activity @ 30uM or 30 ug/ml, normalized to maximal effect of the orthosteric agonist.

T2 sequence (P08173 with tags, fused parts or gaps): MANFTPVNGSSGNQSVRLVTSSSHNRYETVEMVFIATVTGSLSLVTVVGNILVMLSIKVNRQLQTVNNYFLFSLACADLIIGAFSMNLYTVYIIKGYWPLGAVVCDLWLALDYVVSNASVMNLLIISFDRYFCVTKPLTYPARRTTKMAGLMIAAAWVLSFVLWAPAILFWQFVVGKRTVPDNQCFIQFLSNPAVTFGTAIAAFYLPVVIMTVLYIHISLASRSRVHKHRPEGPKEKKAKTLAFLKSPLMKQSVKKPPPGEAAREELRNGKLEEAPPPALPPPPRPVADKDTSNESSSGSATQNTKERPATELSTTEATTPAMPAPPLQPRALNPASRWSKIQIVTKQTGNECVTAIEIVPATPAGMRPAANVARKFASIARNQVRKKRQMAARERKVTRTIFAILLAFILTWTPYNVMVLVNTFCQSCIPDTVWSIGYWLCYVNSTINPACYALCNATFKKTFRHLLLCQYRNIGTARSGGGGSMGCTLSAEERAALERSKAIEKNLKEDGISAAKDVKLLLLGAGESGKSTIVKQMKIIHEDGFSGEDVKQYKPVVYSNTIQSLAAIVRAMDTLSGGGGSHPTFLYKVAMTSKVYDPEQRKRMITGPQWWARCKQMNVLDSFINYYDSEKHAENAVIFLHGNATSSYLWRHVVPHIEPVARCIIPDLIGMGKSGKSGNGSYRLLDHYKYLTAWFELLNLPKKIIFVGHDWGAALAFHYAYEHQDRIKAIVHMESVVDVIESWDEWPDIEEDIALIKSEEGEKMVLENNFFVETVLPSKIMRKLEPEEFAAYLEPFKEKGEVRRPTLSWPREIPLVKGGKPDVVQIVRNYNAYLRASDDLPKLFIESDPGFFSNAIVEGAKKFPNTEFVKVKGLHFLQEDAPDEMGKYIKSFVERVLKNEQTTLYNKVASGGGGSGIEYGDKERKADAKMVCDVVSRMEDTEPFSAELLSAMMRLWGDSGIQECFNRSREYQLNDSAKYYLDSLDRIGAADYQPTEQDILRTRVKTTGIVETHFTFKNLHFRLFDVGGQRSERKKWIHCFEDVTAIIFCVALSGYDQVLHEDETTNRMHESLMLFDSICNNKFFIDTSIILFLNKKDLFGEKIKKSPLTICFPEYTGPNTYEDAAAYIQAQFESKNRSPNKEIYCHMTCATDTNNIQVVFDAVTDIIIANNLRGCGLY

For `Cc1ccc2c(c1)C(=O)C1(O)CCN(c3ccccc3)C1=N2` (racemic) [(±)-Blebbistatin], in experiment [1] (setting [3]), the “Calcium-based assay % stim” value was found to be 130.0%, the “Calcium-based assay % enh” value was found to be 115.1% and the “Calcium-based assay % inh” value was −46.9%. Further, in experiment [2] (setting [3]), the “Invention assay % stim” value is given as −7.2%, the “Invention assay % enh” value is given as −2.4% and the “Invention assay % inh” value was found to be 13.1%.

As for `NCCOB(c1ccccc1)c1ccccc1` [2-APB], in experiment [1] (setting [3]), the “Calcium-based assay % stim” value was determined as 3.7%, the “Calcium-based assay % enh” value is 4.8% and the “Calcium-based assay % inh” value worked out at 30.3%. Further, in experiment [2] (setting [3]), the “Invention assay % stim” value is given as −4.7%, the “Invention assay % enh” value was 6.3% and the “Invention assay % inh” value stood at 10.5%.

For the compound `CCCCCC(O)/C=C/C=O` (stereo not shown) [4-Hydroxynonenal], in experiment [1] (setting [3]), the “Calcium-based assay % stim” value is reported as 1.4%, the “Calcium-based assay % enh” value is given as −7.3% and the “Calcium-based assay % inh” value is on record as 118.9%. For the same compound, in experiment [2] (setting [3]), the “Invention assay % stim” value was −14.9%, the “Invention assay % enh” value was −3.5% and the “Invention assay % inh” value is recorded as 29.9%.

With `COC(=O)C1=C(C)NC(C)=C([N+](=O)[O-])[C@@H]1c1ccccc1C(F)(F)F` [(R)-(+)-Bay K 8644], in experiment [1] (setting [3]), the “Calcium-based assay % stim” value amounted to 26.8%, the “Calcium-based assay % enh” value is recorded as 77.8% and the “Calcium-based assay % inh” value was −66.5%. Besides, in experiment [2] (setting [3]), the “Invention assay % stim” value was −8.2%, the “Invention assay % enh” value came to 4.7% and the “Invention assay % inh” value came out at 11.4%.

Turning to `COC(=O)C1=C(C)NC(C)=C([N+](=O)[O-])[C@H]1c1ccccc1C(F)(F)F` [(S)-(−)-Bay K 8644], in experiment [1] (setting [3]), the “Calcium-based assay % stim” value turned out to be 16.1%, the “Calcium-based assay % enh” value was determined as 59.8% and the “Calcium-based assay % inh” value was −65.0%. In experiment [2] (setting [3]), the “Invention assay % stim” value was −8.0%, the “Invention assay % enh” value was −3.6% and the “Invention assay % inh” value came out at 14.6%.

On to `Nc1ncnc2c1ncn2[C@@H]1O[C@H](COP(=O)(O)OP(=O)(O)OP(=O)(O)O)[C@@H](O)[C@H]1O` [ATP], for which the “activation of the chimeric M4R (BRET)” value in experiment [2] is given as “lack of activation”.

`Cn1c2c(c(=O)n(C)c1=O)C(c1cccc(Br)c1)C1=C(N2)c2ccccc2C1=O` (stereo not shown) [BPIPP]: in experiment [1] (setting [3]), the “Calcium-based assay % stim” value was 18.1%, the “Calcium-based assay % enh” value came out at 62.6% and the “Calcium-based assay % inh” value is −29.2%. For the same compound, in experiment [2] (setting [3]), the “Invention assay % stim” value turned out to be 1.3%, the “Invention assay % enh” value was 8.3% and the “Invention assay % inh” value came out at 1.5%.

For the compound `C[C@H]1CCC/C=C/[C@@H]2C[C@H](O)C[C@H]2[C@H](O)/C=C/C(=O)O1` [Brefeldin A], in experiment [1] (setting [3]), the “Calcium-based assay % stim” value was found to be 5.2%, the “Calcium-based assay % enh” value stood at 32.3% and the “Calcium-based assay % inh” value is −19.5%. In experiment [2] (setting [3]), the “Invention assay % stim” value is −2.5%, the “Invention assay % enh” value is given as −1.9% and the “Invention assay % inh” value was 12.7%.

Turning to `O=C(N/N=C/c1ccc(O)c(O)c1)c1cc2ccccc2cc1O` [Dynamin Inhibitor I], in experiment [1] (setting [3]), the “Calcium-based assay % stim” value was found to be 13.4%, the “Calcium-based assay % enh” value amounted to 92.3% and the “Calcium-based assay % inh” value was −73.7%. In experiment [2] (setting [3]), the “Invention assay % stim” value is recorded as −8.0%, the “Invention assay % enh” value was 23.9% and the “Invention assay % inh” value was −3.5%.

`COC(=O)c1c(C)[nH]c(C)c1C(=O)c1ccccc1Cc1ccccc1` [FPL 64176]: in experiment [1] (setting [3]), the “Calcium-based assay % stim” value is 48.9%, the “Calcium-based assay % enh” value worked out at 59.7% and the “Calcium-based assay % inh” value is −66.6%. In experiment [2] (setting [3]), the “Invention assay % stim” value is −8.4%, the “Invention assay % enh” value turned out to be 7.5% and the “Invention assay % inh” value was found to be 10.0%.

Take `C=C[C@@]1(C)CC(=O)[C@]2(O)[C@@]3(C)[C@@H](O)CCC(C)(C)[C@@H]3[C@H](O)[C@H](OC(C)=O)[C@@]2(C)O1` [FSK]: in experiment [1] (setting [3]), the “Calcium-based assay % stim” value worked out at 57.8%, the “Calcium-based assay % enh” value is given as 58.3% and the “Calcium-based assay % inh” value is listed as −22.4%. Further, in experiment [2] (setting [3]), the “Invention assay % stim” value was −5.0%, the “Invention assay % enh” value was −3.6% and the “Invention assay % inh” value is 11.8%.

As to `CN(C)CCCn1cc(C2=C(c3c[nH]c4ccccc34)C(=O)NC2=O)c2ccccc21` [GF 109203X], in experiment [1] (setting [3]), the “Calcium-based assay % stim” value turned out to be 154.3%, the “Calcium-based assay % enh” value was 84.3% and the “Calcium-based assay % inh” value is given as −10.0%. In addition, in experiment [2] (setting [3]), the “Invention assay % stim” value came to 2.2%, the “Invention assay % enh” value turned out to be 7.4% and the “Invention assay % inh” value is on record as 29.5%.

As for `O=C1Nc2ccc(I)cc2/C1=C/c1cc(Br)c(O)c(Br)c1` [GW 5074], in experiment [1] (setting [3]), the “Calcium-based assay % stim” value is on record as 879.7%, the “Calcium-based assay % enh” value was found to be 151.4% and the “Calcium-based assay % inh” value is listed as −23.8%. In experiment [2] (setting [3]), the “Invention assay % stim” value is given as −6.8%, the “Invention assay % enh” value turned out to be 2.8% and the “Invention assay % inh” value was 13.5%.

Take `O=C1OC2(c3ccccc31)c1ccc(O)c(O)c1Oc1c2ccc(O)c1O` [Gallein]: in experiment [1] (setting [3]), the “Calcium-based assay % stim” value was determined as 11.7%, the “Calcium-based assay % enh” value was 42.9% and the “Calcium-based assay % inh” value is −22.2%. For the same compound, in experiment [2] (setting [3]), the “Invention assay % stim” value was 3.9%, the “Invention assay % enh” value stood at 5.1% and the “Invention assay % inh” value was found to be 5.3%.

Regarding `C[C@H](CCC(=O)O)C[C@H](C)C[C@H](C)C(=O)/C=C(\O)[C@H](C)C[C@H](C)C/C=C/[C@@H](C)[C@@H](O)[C@@H](C)[C@@H](O)C[C@@H]1CC[C@@](C)([C@H]2CC[C@@](C)([C@@H](C)O)O2)O1` [Ionomycin calcium salt], the “Calcium-based assay % enh” value in experiment [1] (* @ 3uM or 3 ug/ml) was 58.8* %. In experiment [1] (setting [3]), the “Calcium-based assay % stim” value came out at 488.7% and the “Calcium-based assay % inh” value came out at 112.2%. In experiment [2] (setting [3]), the “Invention assay % stim” value is reported as −11.8%, the “Invention assay % enh” value is recorded as −2.5% and the “Invention assay % inh” value was determined as 14.6%.

In the case of `CN([C@@H](Cc1ccc(OS(=O)(=O)c2cccc3cnccc23)cc1)C(=O)N1CCN(c2ccccc2)CC1)S(=O)(=O)c1cccc2cnccc12` [KN-62], in experiment [1] (* @ 3uM or 3 ug/ml), the “Calcium-based assay % stim” value is reported as 8.1* % and the “Calcium-based assay % enh” value was 39.4* %. In experiment [2] (* @ 3uM or 3 ug/ml), the “Invention assay % stim” value is −0.8* %, the “Invention assay % enh” value is given as −1.2* % and the “Invention assay % inh” value is 15.8* %.

Take `COc1nc2sc(C(=O)NC3CC3)c(N)c2c(C)c1Cl` [LY2033298]: the “activation of the chimeric M4R (BRET)” value in experiment [2] was “activation”.

For the compound `CCOC(=O)C1=C(C)NC(=S)NC1c1cccc(O)c1` (stereo not shown) [Monastrol], in experiment [1] (setting [3]), the “Calcium-based assay % stim” value is recorded as 4.1%, the “Calcium-based assay % enh” value is 44.7% and the “Calcium-based assay % inh” value is recorded as −16.7%. Moreover, in experiment [2] (setting [3]), the “Invention assay % stim” value is −3.0%, the “Invention assay % enh” value is reported as −0.1% and the “Invention assay % inh” value came out at 7.0%.

Consider `CCN1C(=O)C=CC1=O` [N-Ethylmaleimide], for which, in experiment [1] (setting [3]), the “Calcium-based assay % stim” value was 3.8%, the “Calcium-based assay % enh” value turned out to be 0.2% and the “Calcium-based assay % inh” value was 96.9%. Besides, in experiment [2] (setting [3]), the “Invention assay % stim” value is on record as −3.4%, the “Invention assay % enh” value is reported as 12.4% and the “Invention assay % inh” value worked out at 16.5%.

As for `COC(=O)C1=C(C)NC(C)=C(C(=O)OC)C1c1ccccc1[N+](=O)[O-]` [Nifedipine], in experiment [1] (setting [3]), the “Calcium-based assay % stim” value was −0.9%, the “Calcium-based assay % enh” value stood at 8.7% and the “Calcium-based assay % inh” value is listed as 34.8%. In experiment [2] (setting [3]), the “Invention assay % stim” value is reported as −15.8%, the “Invention assay % enh” value was 5.3% and the “Invention assay % inh” value worked out at 23.2%.

As for `CC[C@H]1/C=C/C=C/C[C@@H](C)[C@H](O)[C@@](C)(O)C(=O)[C@@H](C)[C@H](O)[C@@H](C)C(=O)[C@@H](C)[C@H](O)[C@@H](C)/C=C/C(=O)O[C@@H]2[C@H](C)[C@H](CC1)O[C@]1(CC[C@H](C)[C@H](C[C@@H](C)O)O1)[C@H]2C` [Oligomycin], in experiment [1] (setting [3]), the “Calcium-based assay % stim” value is given as 3.3%, the “Calcium-based assay % enh” value is on record as 63.8% and the “Calcium-based assay % inh” value is −21.6%. Moreover, in experiment [2] (setting [3]), the “Invention assay % stim” value is recorded as 1.8%, the “Invention assay % enh” value turned out to be 3.3% and the “Invention assay % inh” value was 8.5%.
